Laboratory results taken from patent publication US20100048521A1, “COMBINATION OF A GLUCO-KORTICOID AND BETA-CYCLODEXTRIN CONJUGATED VITAMIN A-DERIVATE COMPLEX” (priority 2006, published 2010).

Tested on: skin (epidermis+dermis) of healthy female volunteers
Experiment: Comparative study of skin atrophy: skin thickness and density by ultrasound (Dermascan C) after topical treatment of the inner arm
Format: in vivo, human
From the text: Comparative Study of Hydrocortisone and Hydrocortisone Combined with β-cyclodextrin Conjugated Retinyl Palmitate Complex with Respect to the Development of Skin Atrophy
The study was run according to the protocol described below and was approved by the local regional ethics committee before the study was initiated.
The study included 10 healthy female volunteers. The average age was 43.2 years. They received treatment with hydrocortisone cream 1% on the inner part of one arm (right or left) once daily for 4 weeks. […] On the opposite arm they were treated with hydrocortisone cream 1% and after 10 minutes Nourella Cream containing β-cyclodextrin conjugated retinyl palmitate complex was applied (Pharma Medico; Aarhus, Denmark). Treatments were randomized so that half of the participants treated the right arm with hydrocortisone and the left with the combination and vice versa.
The skin was inspected clinically in the beginning and at the end of the study and objective measurement of the skin thickness and density was done by ultrasound (Dermascan C).

[1] = after 4 weeks of once daily topical treatment, inner arm, ultrasound, ns

C[C@]12CCC(=O)C=C1CC[C@@H]1[C@@H]2[C@@H](O)C[C@@]2(C)[C@H]1CC[C@]2(O)C(=O)CO [Hydrocortisone, hydrocortisone]
Average reduction of skin thickness (epidermis+dermis) (4 weeks once daily topical, change vs baseline, p=0.07 between arms): 15%
Skin density, After 4 weeks [1]: 1830.0 ns pixel
Skin thickness, After 4 weeks [1]: 0.954 ns mm
Development of low echogenic dark areas (dermis density) (after 4 weeks of treatment, ultrasound, p=0.08): Low echogenic dark areas develop
Cross-section of the skin: thickness and density vs baseline (figure) (after treatment for 4 weeks, ultrasound picture): The skin gets thinner and the density decrease
Skin density, Baseline (baseline, before treatment, inner arm, ultrasound): 1503.5 pixel
Skin thickness, Baseline (baseline, before treatment, inner arm, ultrasound, 10 healthy female volunteers): 1.122 mm
Skin atrophy (used for 4 weeks, FIG. 1 and FIG. 2): significant skin atrophy
